Measurements as given in the supplement of paper PMC13380429.

Columns and labels:
Conditions in all cases: 72 h
Vero E6 [1] = assay: cell viability relative to DMSO; higher = less toxic
Calu-3 [2] = assay: as above
U2OS [3] = assay: as above
Caco-2 [4] = assay: as above
Vero E6 [5] = assay: relative viability EC50 (midpoint between 100% and the lowest measured viability); higher = less toxic
Calu-3 [6] = assay: as above
U2OS [7] = assay: as above
Caco-2 [8] = assay: as above
Vero E6 [9] = assay: drug sensitivity score (DSS) for viability; higher = more toxic; extreme values may be limits of the assay
Calu-3 [10] = assay: as above
U2OS [11] = assay: as above
Caco-2 [12] = assay: as above
HepG2 [13] = assay: cell viability relative to DMSO; higher = less toxic
HepG2 [14] = assay: drug sensitivity score (DSS) for viability; higher = more toxic; extreme values may be limits of the assay

SMILES	cell viability (Vero E6 [1]; 1 nM)	cell viability (Vero E6 [1]; 10 nM)	cell viability (Vero E6 [1]; 100 nM)	cell viability (Vero E6 [1]; 1000 nM)	cell viability (Vero E6 [1]; 10000 nM)	cell viability (Calu-3 [2]; 1 nM)	cell viability (Calu-3 [2]; 10 nM)	cell viability (Calu-3 [2]; 100 nM)	cell viability (Calu-3 [2]; 1000 nM)	cell viability (Calu-3 [2]; 10000 nM)	cell viability (U2OS [3]; 1 nM)	cell viability (U2OS [3]; 10 nM)	cell viability (U2OS [3]; 100 nM)	cell viability (U2OS [3]; 1000 nM)	cell viability (U2OS [3]; 10000 nM)	cell viability (Caco-2 [4]; 1 nM)	cell viability (Caco-2 [4]; 10 nM)	cell viability (Caco-2 [4]; 100 nM)	cell viability (Caco-2 [4]; 1000 nM)	cell viability (Caco-2 [4]; 10000 nM)	relative viability EC50 (Vero E6 [5])	relative viability EC50 (Calu-3 [6])	relative viability EC50 (U2OS [7])	relative viability EC50 (Caco-2 [8])	drug sensitivity score (Vero E6 [9])	drug sensitivity score (Calu-3 [10])	drug sensitivity score (U2OS [11])	drug sensitivity score (Caco-2 [12])	cell viability (HepG2 [13]; 1 nM)	cell viability (HepG2 [13]; 10 nM)	cell viability (HepG2 [13]; 100 nM)	cell viability (HepG2 [13]; 1000 nM)	cell viability (HepG2 [13]; 10000 nM)	drug sensitivity score (HepG2 [14])
CC(=O)NC1N=C(c2ccccc2)c2ccccc2NC1=O (stereo not given)	98.5%	96.5%	99%	93.7%	108%	112%	101%	101%	101%	95.1%	101%	94.6%	95.5%	95.3%	96.9%	103%	97.7%	93.9%	101%	103%	> 10 µM	> 10 µM	> 10 µM	> 10 µM	0	0	0	0						
COc1cc2c(Oc3ccc4[nH]c(C)cc4c3F)ccnc2cc1OCC1(N)CC1 [anlotinib]	91.2%	98.6%	97%	95.2%	84.4%	94.8%	93.4%	99.3%	100%	84.5%	95.1%	102%	96.9%	99.4%	54.7%	91.7%	93.8%	94.4%	87.4%	76.2%	> 10 µM	> 10 µM		> 10 µM	0.5	0.2	2.4	1.8	106%	99.6%	101%	103%	59.2%	1.8
OC(c1ccc(-c2ccc(CN3CCN(Cc4ccncc4)CC3)cc2)c(F)c1)(C(F)(F)F)C(F)(F)F [SR-2211]	103%	99.8%	103%	100%	103%	101%	101%	93.6%	95.9%	95.5%	98.4%	106%	102%	102%	95.7%	113%	95.4%	101%	86.4%	76.1%	> 10 µM	> 10 µM	> 10 µM	> 10 µM	0	0	0	2.4	94.2%	101%	98.8%	95.4%	58%	2.9
O=C(O)CCC(=O)Nc1ccc(S(=O)(=O)Nc2nccs2)cc1 [succinylsulfathiazole]	97.8%	97.3%	98.7%	92.1%	112%	94%	96.2%	96.1%	112%	108%	95.3%	100%	95.7%	99.9%	104%	93.9%	100%	89.6%	104%	102%	> 10 µM	> 10 µM	> 10 µM	> 10 µM	0	0	0	0						
CN(C)C(=O)COC(=O)Cc1ccc(OC(=O)c2ccc(NC(=N)N)cc2)cc1 [camostat-mesilate]	110%	99.7%	101%	103%	106%	100%	106%	98.2%	110%	103%	97.8%	102%	94.2%	104%	102%	102%	98.9%	104%	105%	108%	> 10 µM	> 10 µM	> 10 µM	> 10 µM	0	0	0	0						
C[C@H](NC(=O)[C@@H](Cc1c[nH]c2ccccc12)NC(=O)[C@@H](N)Cc1c[nH]cn1)C(=O)N[C@@H](Cc1c[nH]c2ccccc12)C(=O)N[C@H](Cc1ccccc1)C(=O)N[C@@H](CCCCN)C(N)=O	108%	100%	99.1%	100%	102%	94.6%	109%	107%	107%	99.1%						92%	97%	98.7%	99.6%	110%	> 10 µM	> 10 µM		> 10 µM	0	0		0						
CN1CCC(Nc2ncc3ncnc(Nc4ccc(F)c(Cl)c4)c3n2)CC1 [BIBX-1382]	104%	104%	90.1%	61.7%	36.2%	101%	115%	95.8%	70.2%	27.4%	99.4%	104%	95.9%	98.9%	83.8%	99%	104%	85.4%	81.4%	63.3%	0.634 µM	1.21 µM	> 10 µM		8.4	7.6	0.4	4.4	102%	93.6%	98.8%	95.8%	68.3%	2.1
